Laboratory results taken from ChEMBL document CHEMBL1765080, “Synthesis, biological evaluation and molecular modeling of novel triazole-containing berberine derivatives as acetylcholinesterase and β-amyloid aggregation inhibitors” (Bioorg Med Chem, 2011).
pIC50: −log10 of the molar value.

Columns and labels:
[1] = Ratio of IC50 for equine serum Butyrylcholinesterase to IC50 for electric eel Acetylcholinesterase
Acetylcholinesterase = Acetylcholinesterase (Electrophorus electricus, UniProt O42275); experiment: Inhibition of electric eel Acetylcholinesterase
Butyrylcholinesterase = Butyrylcholinesterase (Equus caballus, UniProt Q9N1N9); experiment: Inhibition of equine serum Butyrylcholinesterase
[2] = Inhibition of amyloid-beta (1 to 42) aggregation at 20 uM after 48 hrs by fluorescence analysis using thioflavin T

Chain of Butyrylcholinesterase (Q9N1N9 whole entry): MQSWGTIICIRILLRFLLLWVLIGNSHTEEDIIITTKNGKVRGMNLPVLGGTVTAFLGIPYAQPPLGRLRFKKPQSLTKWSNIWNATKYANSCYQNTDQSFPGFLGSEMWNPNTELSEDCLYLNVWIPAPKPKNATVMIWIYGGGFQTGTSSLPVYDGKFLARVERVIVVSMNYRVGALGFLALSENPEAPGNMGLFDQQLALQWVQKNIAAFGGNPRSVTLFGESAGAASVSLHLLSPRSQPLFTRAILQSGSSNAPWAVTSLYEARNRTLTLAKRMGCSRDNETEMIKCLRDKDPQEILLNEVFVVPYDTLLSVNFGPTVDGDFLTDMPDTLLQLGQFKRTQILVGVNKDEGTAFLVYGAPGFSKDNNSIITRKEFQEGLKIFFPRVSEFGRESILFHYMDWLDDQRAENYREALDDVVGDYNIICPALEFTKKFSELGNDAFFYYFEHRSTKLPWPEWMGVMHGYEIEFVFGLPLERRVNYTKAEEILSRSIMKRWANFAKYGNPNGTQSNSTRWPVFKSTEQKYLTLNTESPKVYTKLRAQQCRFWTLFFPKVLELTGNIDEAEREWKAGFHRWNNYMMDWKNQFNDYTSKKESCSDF
Chain of Acetylcholinesterase (O42275 whole entry): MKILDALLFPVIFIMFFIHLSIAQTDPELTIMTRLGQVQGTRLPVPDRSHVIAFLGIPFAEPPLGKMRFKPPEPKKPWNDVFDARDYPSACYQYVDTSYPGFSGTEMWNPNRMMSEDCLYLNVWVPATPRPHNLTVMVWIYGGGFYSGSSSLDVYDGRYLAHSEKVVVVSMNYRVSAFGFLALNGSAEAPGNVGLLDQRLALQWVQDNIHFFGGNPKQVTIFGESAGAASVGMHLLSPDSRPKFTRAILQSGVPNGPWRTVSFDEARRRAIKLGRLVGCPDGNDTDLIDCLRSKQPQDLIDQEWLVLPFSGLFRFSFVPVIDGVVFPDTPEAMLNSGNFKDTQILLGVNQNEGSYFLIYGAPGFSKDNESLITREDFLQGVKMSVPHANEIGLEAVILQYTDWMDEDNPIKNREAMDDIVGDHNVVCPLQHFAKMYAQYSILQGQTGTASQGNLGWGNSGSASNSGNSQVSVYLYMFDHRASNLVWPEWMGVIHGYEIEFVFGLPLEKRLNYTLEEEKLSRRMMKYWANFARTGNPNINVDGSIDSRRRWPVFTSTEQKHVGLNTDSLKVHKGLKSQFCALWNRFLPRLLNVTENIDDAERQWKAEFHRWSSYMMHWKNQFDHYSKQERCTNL

| Structure (SMILES) | Ratio IC50 [1] | pIC50 (Acetylcholinesterase) | pIC50 (Butyrylcholinesterase) | inhibition [2] [%] |
| --- | --- | --- | --- | --- |
| CCCCN(CCCC)c1cn(CCCOc2c(OC)ccc3cc4[n+](cc23)CCc2cc3c(cc2-4)OCO3)nn1 | 8.48 | 6.61 | 5.69 |  |
| CCCN(CCC)c1cn(CCCOc2c(OC)ccc3cc4[n+](cc23)CCc2cc3c(cc2-4)OCO3)nn1 | 11.3 | 6.85 | 5.80 |  |
| CCCCc1cn(CCCCOc2c(OC)ccc3cc4[n+](cc23)CCc2cc3c(cc2-4)OCO3)nn1 | 10 | 6.70 | 5.69 | 77.9 |
| CCCCN(CCCC)c1cn(CCCCOc2c(OC)ccc3cc4[n+](cc23)CCc2cc3c(cc2-4)OCO3)nn1 | 11.6 | 6.33 | 5.26 | 71.7 |
| COc1ccc2cc3[n+](cc2c1OC)CCc1cc2c(cc1-3)OCO2 |  |  |  | 36.3 |
| CCCN(CCC)c1cn(CCCCOc2c(OC)ccc3cc4[n+](cc23)CCc2cc3c(cc2-4)OCO3)nn1 | 17.7 | 6.57 | 5.32 | 62.5 |
| CCCCc1cn(CCCOc2c(OC)ccc3cc4[n+](cc23)CCc2cc3c(cc2-4)OCO3)nn1 | 24.6 | 6.78 | 5.39 |  |
| COc1ccc2cc3[n+](cc2c1OCCCn1cc(-c2ccccc2)nn1)CCc1cc2c(cc1-3)OCO2 | 7.13 | 6.51 | 5.66 |  |
| COc1ccc2cc3[n+](cc2c1OCCCCn1cc(-c2ccccc2)nn1)CCc1cc2c(cc1-3)OCO2 | 1.14 | 5.88 | 5.82 | 60.6 |
